Tested on: croton oil-induced inflammation in the mouse's ear
Experiment: Topical anti-inflammatory activity after immediate application in croton oil-induced inflammation in the mouse's ear
Type: in vivo, mouse (female CF1)
Settings: 4 h, Topical Dose 4 mg/ear, immediate application with 2% croton oil, ears taken four hours after application, read-out: % Inhibition of Ear Edema
Procedure: Testing of the anti-inflammatory effects of the compounds of Formula I were performed utilizing a modification of the experimental techniques described by Tonelli, G., Thibault, L. and Ringler, L., "A Bioassay for the Concomitant Assessment of the Anti-phlogistic and Thymolytic Activities of Topically Applied Corticoids": Endocrinology 77, 625 (1965) and Roszkowski, A. P., Rooks, W. H. II, Tomolonis, A. J., and Miller, L. M., "Anti-inflammatory and Analgetic Properties of the d-2-(6-Methoxy-2'-Naphthyl)Propionic Acid (Naproxen)". J. Pharm. Exp. Ther., 179, 114 (1971).
The topical anti-inflammatory activity of the test compounds is measured by immediate application at the time of induction of croton oil-induced inflammation in the mouse's ear.
0.1 ml. of a solution containing 2% croton oil (Amend Drug and Chemical Co., Irvington, N.J.), 73% diethyl ether, U.S.P. (Corco Chemical Corp., Fairless Hills, Pa.), 20% pyridine (J. T. Baker Chemical Co., Phillipsburg, Pa.) and 5% distilled water was applied to the left ear of female CF1 mice, in groups of six, during light ether anesthesia.
Four hours after application of either the irritant solution or the irritant solution containing the test compound, the mice were sacrificed by cervical dislocation, both ears were amputated and circular sections, one from each ear, were removed with a No. 4 cork borer (7 mm, i.d.). Each ear section was then weighed. The increase in weight due to edema formation caused by the croton oil in the treated ear and the reduction of that edema caused by drug treatment was determined by subtracting the weight of the untreated right ear section from that of the treated left ear section.
The anti-inflammatory effects of the test compounds expressed as percent inhibition are calculated by: [formula]
TOPICAL ANTI-INFLAMMATORY ACTIVITY AFTER
IMMEDIATE APPLICATION IN CROTON OIL-INDUCED
INFLAMMATION IN THE MOUSE'S EAR

SMILES | inhibition in vivo at 4 mg/ear
Clc1ccc(N=Cc2c(Cl)cccc2Cl)cc1 [N-(2,6-dichlorobenzylidene)-p-chloroaniline] | 9.1%
Clc1cc(C=Nc2ccc(Br)cc2)ccc1C1CCCCC1 [N-(3-chloro-4-cyclohexylbenzylidene)-p-bromoaniline] | 1.5%
Fc1ccc(N=Cc2ccc(C3CCCCC3)c(Cl)c2)cc1 [N-(3-chloro-4-cyclohexylbenzylidene)-p-fluoroaniline] | 6.8%
Fc1ccc(N=Cc2cccc(Cl)c2)cc1 [N-(m-chlorobenzylidene)-p-fluoroaniline] | 9.1%
Cc1c(Cl)cccc1N=Cc1ccccc1Cl [N-(o-chlorobenzylidene)-3-chloro-2-methylaniline] | 44.3%
Clc1cccc(N=Cc2ccccc2Cl)c1 [N-(o-chlorobenzylidene)-m-chloroaniline] | 4%
Fc1ccc(N=Cc2ccccc2Cl)cc1 [N-(o-chlorobenzylidene)-p-fluoroaniline] | 24.3%
Cc1cccc(N=Cc2ccccc2O)c1C [N-(o-hydroxybenzylidene)-2,3-dimethylaniline] | 27.8%
Cc1c(Cl)cccc1N=Cc1ccccc1O [N-(o-hydroxybenzylidene)-2-methyl-3-chloroaniline] | 38.5%
Oc1ccccc1C=Nc1ccccc1 [N-(o-hydroxybenzylidene)-aniline, N-(o-hydroxybenzylidene)aniline] | 5.3%
Oc1ccccc1C=Nc1cccc(C(F)(F)F)c1 [N-(o-hydroxybenzylidene)-m-(α,α,α-trifluorotoluidine)] | 21.6%
Oc1ccccc1C=Nc1ccc(F)cc1 [N-(o-hydroxybenzylidene)-p-fluoroaniline] | 21.5%
Fc1ccc(N=Cc2ccc(Br)cc2)c(C(F)(F)F)c1 [N-(p-bromobenzylidene)-4-fluoro-2-trifluoromethylaniline] | 18.8%
Cc1c(Cl)cccc1N=Cc1ccc(Cl)cc1 [N-(p-chlorobenzylidene)-2-methyl-3-chloroaniline] | 46.8%
Cc1cc(Cl)ccc1N=Cc1ccc(Cl)cc1 [N-(p-chlorobenzylidene)-2-methyl-4-chloroaniline] | 23%
Fc1ccc(N=Cc2ccc(Cl)cc2)c(C(F)(F)F)c1 [N-(p-chlorobenzylidene)-4-fluoro-2-trifluoromethylaniline] | 36.5%

SMILES | inhibition in vivo at 4 mg/ear
Clc1ccc(C=Nc2cccc(Cl)c2)cc1 [N-(p-chlorobenzylidene)-m-chloroaniline] | 23.6%
Fc1cccc(N=Cc2ccc(Cl)cc2)c1 [N-(p-chlorobenzylidene)-m-fluoroaniline] | 10.8%
Fc1ccc(N=Cc2ccc(Cl)cc2)cc1 [N-(p-chlorobenzylidene)-p-fluoroaniline] | 45.2%
Cc1ccc(N=Cc2ccc(Cl)cc2)cc1 [N-(p-chlorobenzylidene)-p-methylaniline] | 16.2%
Fc1ccc(C=Nc2ccccc2C(F)(F)F)cc1 [N-(p-fluorobenzylidene)-o-trifluoromethylaniline] | 21.3%
Clc1cc(Br)ccc1N=Cc1ccc(-c2ccccc2)cc1 [N-(p-phenylbenzylidene)-2-chloro-4-bromoaniline] | 33.9%
C(=Nc1ccccc1)c1ccc(-c2ccccc2)cc1 [N-(p-phenylbenzylidene)-aniline, N-(p-phenylbenzylidene)aniline] | 24.7%
Brc1ccc(N=Cc2ccc(-c3ccccc3)cc2)cc1 [N-(p-phenylbenzylidene)-p-bromoaniline] | 25.5%
Cc1ccc(N=Cc2ccc(-c3ccccc3)cc2)cc1 [N-(p-phenylbenzylidene)-p-methylaniline] | 27%
Cc1cc(F)ccc1N=Cc1ccccc1 [N-benzylidene-2-methyl-4-fluoroaniline] | 26.8%
Cc1ccccc1N=Cc1ccccc1 [N-benzylidene-o-toluidine] | 5.5%
Clc1ccc(N=Cc2ccccc2)cc1 [N-benzylidene-p-chloroaniline] | 29.3%
CCc1ccc(N=Cc2ccccc2)cc1 [N-benzylidene-p-ethylaniline] | 30.5%
Cc1ccc(N=Cc2ccccc2)cc1 [N-benzylidene-p-toluidine] | 45%
C(=Nc1ccccc1)c1ccccc1 [N-benzylideneaniline, N-Benzylideneaniline] | 4.9%

Reference: US4198349A, “Benzylideneaniline derivatives” (William H. Rorer, Inc., priority 1978, dated 1980)
